From patent publication EP4273142A1 (Université de Bretagne Occidentale, priority 2022, dated 2023)
Entries after “also recorded” stand apart in the source; their conditions may differ. Read-outs that look alike come from different tables or passages of the source. Marks after values point to notes of the source that are not given here.

Assays:
[1] = Ligand protonation equilibria by potentiometric titration; assay type: physicochemical; settings: 1.0 m kcl
[2] = Pd(II) complexation equilibria by UV spectrophotometry and potentiometry; settings: for log KML: stability constant of the Pd(II) complex, 25°C in 1.0 M KCl
[3] = EDTA challenge (transchelation) of 109Pd-labelled complexes, radio-HPLC; settings: pbs, 1000 eq edta, pH 7
[4] = cited from earlier work
[5] = Acid-mediated dissociation (cold inertness) followed by 1H NMR; assay type: physicochemical; settings: Pd(II) complex, 5 M DCl (HCl 5M), 90°C, up to five months, 0.05M
[6] = pbs, 1000 eq edta, 24 h, pH 7
[7] = Table 5, stepwise protonation constant in log units, read-out: H2L + H^+ ⇄H3L
[8] = Table 5, stepwise protonation constant in log units, read-out: H3L + H^+ ⇄H4L
[9] = Table 5, stepwise protonation constant in log units, read-out: HL + H^+ ⇄H2L
[10] = Table 5, stepwise protonation constant in log units, read-out: L + H^+ ⇄HL
[11] = Table 6, overall constant in log units, read-out: L + H^+ ⇄HL
[12] = Table 5, complexation constant in log units, […], 1.0 M (K,H)Cl
[13] = Table 6, overall formation constant in log units, […], 1.0 M (K,H)Cl

Compound | pKa [1, 7] | pKa [1, 8] | pKa [1, 9] | pKa [1, 10] | pKa [1, 11] | Pd^2+ + L ⇄PdL [2, 12] | Pd^2+ + L ⇄PdL [2, 13] | log KML [2] | Dissociation [5] | also measured
c1ccc(CN2CCCNCCNCCCNCC2)cc1 [TE1Bn, reference compound] | 2.21 | 2.89 | 9.39 | 11.3 | 11.3 | > 43 | >43 | > 43 | – | –
O=C(O)c1cccc(CN2CCCNCCNCCCNCC2)n1 [TE1PA, 6-((1,4,8,11-tetraazacyclotetradecan-1-yl)methyl)picolinate] | 3.05 | 2.28 | 10.1 | 11.1 | 11.1 | – | – | – | – | pKa ([1]; Table 5, stepwise protonation constant in log units, read-out: H4L + H^+ ⇄H5L): 1.69; PdHL + H^+ ⇄PdH2L ([2]; Table 5, stepwise protonation constant of the Pd(II) complex in log units, […], 1.0 M KCl): 1.8(1)
c1ccc(CN2CCCNCCNCCCNCC2)nc1 [TE1Py] | 2.65 | 2.83 | 10.4 | 11.5 | 11.5 | 42.6(1) | 42.6(1) | 42.6 | – | Pd^2+ + L + H^+ ⇄PdHL ([2]; Table 6, overall formation constant in log units, determined by UV spectrophotometry, pH 0-1.5, […], 1.0 M (K,H)Cl): 44.2(1) ^b
C1CNCCNCCCNCCNC1.[Cl-].[Cl-].[Pd+2] [[Pd(cyclam)]^2+, Palladium(II) 1,4,8,11-tetraazacyclotetradecane dichloride, reference compound] | – | – | – | – | – | – | – | – | neither [Pd(cyclam)]^2+ nor [Pd(TE1PA)]^2+ present any significant dissociation; also recorded: HCl 5M, 90°C: Inert | degraded at 24 h [3]: 13%; log KML ([4]; Pd(II) cyclam complex, 25°C in 0.1 M NaClO4, Harrington et al. 2005, value estimated): log KML = 56,9
OCCN1CCCN(CCO)CCN(CCO)CCCN(CCO)CC1 [tetra(2-hydroxyethyl) cyclam] | – | – | – | – | – | – | – | – | – | log KML ([4]; Pd(II) complex, Hay et al. 1987): 18.32
Palladium (II) 6-methylpicolinate-1,4,8,11-tetraazacyclotetradecane tetrachloropalladate [[Pd(TE1PA)]^2+] | – | – | – | – | – | – | – | log KML = 38.4 | neither [Pd(cyclam)]^2+ nor [Pd(TE1PA)]^2+ present any significant dissociation; also recorded: HCl, 5M, 90°C: Inert | demetallation [6]: 9% demetallation
